Source: patent publication US7417043B2, “Modulators of dopamine neurotransmission” (NeuroSearch Sweden AB, priority 1999, dated 2008)
Counter-ions that a name gives are not always drawn.

Key:
non-pre-treated rat = assay: In vivo test: behavior, motility meter, non-pre-treated rats; settings: for behavioral (motor) activity: 60 min session
[1] = system: 3,4-dihydroxyphenylacetic acid in the striatum; assay: In vivo test: neurochemistry, DOPAC in brain tissue; set-up: species or system rat; settings: for 3,4-dihydroxyphenylacetic acid in the striatum: rat
From the text: (§1) In vivo Test: Neurochemistry
(§2) After the behavioral activity sessions the rats were decapitated and their brains rapidly taken out and put on an ice-cold petri-dish. The limbic forebrain, the striatum, the frontal cortex and the remaining hemispheral parts of each rat were dissected and frozen. Each brain part was subsequently analyzed with respect to its content of monoamines and their metabolites. The monoaminergic indices analyzed were dopamine (DA), 3,4-dihydroxyphenylacetic acid (DOPAC), homovanillic acid (HVA), 3-methoxytyramine (3-MT), serotonin (5-HT), 5-hydroxyindole acetic acid ([…]), and noradrenaline (NA).

[2] = system: 5-hydroxyindoleacetic acid in the striatum; assay: In vivo test: neurochemistry, 5-hydroxyindoleacetic acid in brain tissue; settings: rat; for 5-hydroxyindoleacetic acid in the striatum: 50 μmol/kg s.c.
From the text: as §1
as §2, with “(NA). All monoaminergic indices in the dissected tissue were analyzed by means of HPLC with electrochemical detection as described by Svensson K, et al., 1986, Naunynschmiedeberg's Arch Pharmacol 334: 234-245 and references cited therein.” for “(NA).”

serotonin (5-HT) = assay: In vivo test: neurochemistry, serotonin in brain tissue; settings: rat, 50 μmol/kg s.c.
From the text: as §1
as §2, with “(NA). All monoaminergic indices in the dissected tissue were analyzed by means of HPLC with electrochemical detection as described by Svensson K, et al., 1986, Naunynschmiedeberg's Arch Pharmacol 334: 234-245 and references cited therein.” for “(NA).”

[3] = system: serotonin behavioral syndrome; assay: Serotonin behavioral syndrome; type: in vivo; settings: rat
[4] = system: rats pre-treated with d-amphetamine; assay: In vivo test: behavior, d-amphetamine induced hyperactivity
5-HT1A receptor = biological target: T1, 5-HT1A receptor (Homo sapiens, UniProt P08908); settings: reported in WO 93/00313; cited from earlier work
T1 sequence (P08908 1-422): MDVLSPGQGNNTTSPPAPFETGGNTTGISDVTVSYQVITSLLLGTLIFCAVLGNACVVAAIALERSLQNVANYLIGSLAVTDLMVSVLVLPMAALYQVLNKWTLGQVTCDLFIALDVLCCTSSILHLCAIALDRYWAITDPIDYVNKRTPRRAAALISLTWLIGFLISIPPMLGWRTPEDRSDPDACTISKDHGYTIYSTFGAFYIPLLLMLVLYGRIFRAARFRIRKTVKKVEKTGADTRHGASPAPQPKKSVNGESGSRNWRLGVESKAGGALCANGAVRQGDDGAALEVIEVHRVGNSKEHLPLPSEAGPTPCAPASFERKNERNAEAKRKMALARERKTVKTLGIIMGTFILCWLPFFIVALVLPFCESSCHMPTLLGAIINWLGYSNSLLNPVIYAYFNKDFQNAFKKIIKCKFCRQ

habituated rats = settings: animals habituated to the motilitymeter box, 50 μmol/kg s.c.
[5] = system: rats pre-treated with dizolcipine (Mk-801); settings: Mk-801 0,7 mg/kg i.p.; test compound 50 μmol/kg sc
sigma receptor = settings: 10 μmol/L, rat brain membranes
[6] = non-pre-treated rat, 50 μmol/kg s.c.
[7] = non-pre-treated rat, 33 μmol/kg (s.c.)

CCCN1CCN(c2cccc(C(C)=O)c2)CC1 (as salt: oxalate)
melting point: 119 °C

CCCN1CCN(c2cccc(OS(C)(=O)=O)c2)CC1 (as salt: fumarate) [Example 17, Methanesulfonic acid 3-(4-propyl-piperazin-1-yl)-phenyl ester]
melting point: 143 to 144 °C

CC(C)CN1CCC(c2cccc(S(C)(=O)=O)c2)CC1 (as salt: HCl) [Example 11, 1-Isobutyl-4-(3-methanesulfonyl-phenyl)-piperidine]
melting point: 212 °C

CCCN1CCN(c2ccccc2OC)CC1 [1-(2-methoxy-phenyl)-4-propyl piperazine]
behavioral (motor) activity (non-pre-treated rat; [6]): 67±34 cm/60 min | 3,4-dihydroxyphenylacetic acid in the striatum ([1]; 50 μmol/kg s.c.): 3836±65 ng/g tissue

CCCN1CCC(c2cccc(OS(C)(=O)=O)c2)CC1 [Example 14, Methanesulfonic acid 3-(1-propyl-piperidin-4-yl)-phenyl ester]
behavioral activity (non-pre-treated rat; rat, 50 μmol/kg s.c., 30 min session): 2126±240 cm/30 min | 3,4-dihydroxyphenylacetic acid in the striatum ([1]; 50 μmol/kg s.c.): 3208±236 ng/g tissue

CC(C)N1CCC(c2cccc(S(C)(=O)=O)c2)CC1 (as salt: HCl) [Example 9, 1-Isopropyl-4-(3-methanesulfonyl-phenyl)-piperidine]
melting point: 220 °C

Oc1cccc(C2CCN(Cc3ccccc3)CC2)c1 [3-(1-Benzyl-piperidin-4-yl)-phenol, 3-(1-benzyl-piperidin-4-yl)-phenol]
5-hydroxyindoleacetic acid in the striatum [2]: 492±26 ng/g tissue | serotonin in the limbic region (5-HT) (serotonin (5-HT); limbic region): 677±20 ng/g tissue

CS(=O)(=O)c1cccc(C2CCN(Cc3ccccc3)CC2)c1 [1-benzyl-4-(3-methanesulfonyl-phenyl)-piperidine]
5-hydroxyindoleacetic acid in the striatum [2]: 487±7 ng/g tissue | serotonin (5-HT) (serotonin (5-HT)): 345±18 ng/g tissue | serotonin behavioral syndrome [3]: induces the serotonin behavioral syndrome

CCN1CCC(c2cccc(S(C)(=O)=O)c2)CC1 (as salt: HCl) [Example 8, 4-(3-Methanesulfonyl-phenyl)-1-ethyl-piperidine]
melting point: 158 °C

CCCN1CCC(c2ccc(S(C)(=O)=O)cc2)CC1 [4-(4-methanesulphonyl-phenyl)-1-propyl piperidine]
3,4-dihydroxyphenylacetic acid in the striatum ([1]; 50 μmol/kg s.c.): 928±51 ng/g tissue

CCCN1CCN(c2ccccc2)CC1 [1-phenyl-4-propyl-piperazine]
behavioral activity (non-pre-treated rat; [7]): 1923±204 cm/60 min

CCCN1CCN(c2cccc(S(C)(=O)=O)c2)CC1 (as salt: HCl)
melting point: 233 °C

CCCN1CCC(c2cccc(C#N)c2)CC1 (as salt: fumarate)
melting point: 122 °C

CCCN1CCC(c2ccccc2)CC1 [4-phenyl-1-propyl-piperidine]
behavioral activity (non-pre-treated rat; [7]): 2553±471 cm/60 min | 3,4-dihydroxyphenylacetic acid in the striatum ([1]; 33 μmol/kg s.c.): 1190±70 ng/g tissue | behavioral activity in the d-amphetamine stimulated ([4]; d-amphetamine pre-treated, test compound 33 μmol/kg): 13764±2919 cm/60 min

CCCN1CCN(c2cccc(C(F)(F)F)c2)CC1 [1-propyl-4-(3-triflouro-methyl-phenyl) piperazine]
behavioral (motor) activity (non-pre-treated rat; [6]): 271±137 cm/60 min | 3,4-dihydroxyphenylacetic acid in the striatum ([1]; 50 μmol/kg s.c.): 3358±162 ng/g tissue

CCCN1CCC(c2cccc(C(F)(F)F)c2)CC1 (as salt: HCl)
melting point: 195 °C

CCCCN1CCC(c2cccc(C(F)(F)F)c2)CC1 (as salt: HCl) [Example 5, 1-Butyl-4-(3-trifluoromethyl-phenyl)piperidine]
melting point: 222 °C

FC(F)(F)c1cccc(N2CCN(CCc3ccccc3)CC2)c1 [1-phenethyl-4-(3-trifluoromethyl-phenyl)-piperazine]
3,4-dihydroxyphenylacetic acid in the striatum ([1]; 50 μmol/kg s.c.): 1406±77 ng/g tissue | 5-hydroxyindoleacetic acid in the striatum [2]: 289±16 ng/g tissue | serotonin (5-HT) (serotonin (5-HT)): 282±6 ng/g tissue | IC50 (5-HT1A receptor): 20.3 nM

CCCN1CCN(c2cccc(C#N)c2)CC1 [3-(4-Propyl-piperazine-1-yl)-benzonitrile]
behavioral activity (non-pre-treated rat; rat, 100 μmol/kg s.c.): 634±266 cm/60 min | 3,4-dihydroxyphenylacetic acid in the striatum ([1]; 100 μmol/kg s.c.): 4498±243 ng/g tissue | 5-hydroxyindole acetic acid ([2]; 100 μmol/kg s.c.): 484±26 ng/g tissue

CCCN1CCC(c2cccc(S(C)(=O)=O)c2)CC1 [Example 6, 4-(3-Methanesulfonyl-phenyl)-1-propyl-piperidine]
behavioral (motor) activity (non-pre-treated rat; [6]): 2879±398 cm/60 min | 4-dihydroxyphenylacetic acid in the striatum ([1]; habituated animals, 50 μmol/kg s.c.): 2074±144 ng/g tissue | 3,4-dihydroxyphenylacetic acid in the striatum ([1]; 50 μmol/kg s.c.): 1703±19 ng/g tissue | behavioral activity (habituated rats): 1243±72 cm/60 min | behavioral activation induced by dizolcipine (Mk-801) [5]: 18197±1389 cm/60 min | inhibition of [3H]-DTG binding (sigma receptor): < 50% | d-Amphetamine hyperactivity ([4]; d-amphetamine 1.5 mg/kg s.c., test compound 50 μmol/kg s.c.): 1839±344 cm/60 min

Br.CCCN1CCC(c2cccc(O)c2)CC1 [preparation 14, 3-(1-Propyl-piperidin-4-yl)-phenol×HBr]
3,4-dihydroxyphenylacetic acid in the striatum ([1]; 50 μmol/kg s.c.): 1169±42 ng/g tissue

CS(=O)(=O)c1cccc(N2CCN(CCO)CC2)c1 [2-[4-(3-methanesulfonyl-phenyl)piperazin-1-yl]-ethanol]
behavioral activity (non-pre-treated rat; [7]): 3782±962 cm/60 min | 3,4-dihydroxyphenylacetic acid in the striatum ([1]; 33 μmol/kg s.c.): 1239±162 ng/g tissue
